Consider eight compounds from ChEMBL document CHEMBL1201862, “PubChem BioAssay data set” (2004).

Holding throughout (assay): NCI anticancer screen, dose series, 48 h
The subject of experiment [1] is HL-60.
Experiment [2] concerns LOX IMVI.
The subject of experiment [3] is MDA-MB-435.
The subject of experiment [4] is SR.
Experiment [5] has as its system SF-539.
In experiment [6] the test system is U-251.
Experiment [7] deals with A549.
Experiment [8] has as its system UACC-257.
Experiment [9] deals with NCI/ADR-RES.
Experiment [10] has as its system OVCAR-8.
Experiment [11] deals with T47D.
Experiment [12] concerns UACC-62.
For experiment [13], the system named is MOLT-4.
The test system of experiment [14] is HCT-15.
In experiment [15] the test system is Hs-578T.
The test system of experiment [16] is SNB-19.
Experiment [17] relates to SNB-75.
Experiment [18] deals with CAKI-1.
In experiment [19] the test system is HOP-92.
The test system of experiment [20] is M14.

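Protocol summary: plate cells (96-well), add compound at 5 concentrations, incubate 48 h, interpolate endpoints linearly. Here, GI50 denotes the concentration required for 50% inhibition of growth.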 The source made the active and inactive calls. Rule as the data show it: active = GI50 up to about 1.1 µM and inactive = higher. Where only a bound is given, the exact number is not on record here.

Consider `COC(=O)N[C@H](C(=O)O)C(C)O[Si](C)(C)C(C)(C)C` (stereo partly drawn), for which the GI50 in [1], in experiment [2], in experiment [3], in experiment [4], in experiment [5] and in [6] was > 100 µM (inactive) throughout. The GI50 in experiment [7], in experiment [8], in [9], in experiment [10], in experiment [11] and in [12] was > 100 µM (inactive) each time. The GI50 in experiment [13] was > 100 µM (inactive); in experiment [14] it was above 100 µM; in experiment [15], > 100 µM (inactive); in experiment [16], > 100 µM (inactive).

Turning to `Cc1ccc(S(=O)(=O)CN2C(=O)C(c3ccccc3)(c3ccccc3)C23OC(c2ccc(Cl)cc2)=CC3=O)cc1` (stereo not drawn), the GI50 in [1], in experiment [2], in experiment [3], in experiment [17], in [5] and in experiment [18] was > 10 µM (inactive) each time. The GI50 in experiment [19], in [6], in [7], in experiment [8], in [9] and in experiment [10] was > 10 µM (inactive) in each case. The GI50 in experiment [11] was > 10 µM (inactive); in experiment [12], > 10 µM (inactive); in [20], > 10 µM (inactive); in experiment [13], > 10 µM (inactive); in experiment [14] it was above 10 µM; in experiment [15], > 10 µM (inactive). For the same compound, the GI50 in [16] is > 10 µM (inactive).

In the case of `Cc1n[nH]c(=O)n1-n1cccc1`, the GI50 in [2], in experiment [3], in [17], in [5], in [18] and in experiment [19] was > 100 µM (inactive) in each case. The GI50 in experiment [6], in [7], in experiment [8], in [9], in experiment [10] and in experiment [11] was > 100 µM (inactive) each time. Moreover, the GI50 in [12] was > 100 µM (inactive); in experiment [20] it was > 100 µM (inactive); in experiment [13] it was > 100 µM (inactive); in [14], above 100 µM; in [15], > 100 µM (inactive); in experiment [16] it was > 100 µM (inactive).

Consider `O=C(O)CCC1C(=O)C2CCN1CC2` (stereo not drawn), for which the GI50 in experiment [1], in experiment [2], in experiment [3], in experiment [17], in [4] and in experiment [5] was > 100 µM (inactive) in each case. Further, the GI50 in experiment [18], in experiment [6], in [7], in experiment [8], in [9] and in experiment [10] was > 100 µM (inactive) each time. The GI50 is > 100 µM (inactive) in experiment [11]; > 100 µM (inactive) in [12]; > 100 µM (inactive) in [20]; > 100 µM (inactive) in [13]; above 100 µM in experiment [14]; > 100 µM (inactive) in experiment [15]. The GI50 in experiment [16] is > 100 µM (inactive).

Take `O=C1CC2c3ccccc3CCC2c2ccccc21` (stereo not drawn): the GI50 is 21.6 µM (inactive) in experiment [1]; 15.8 µM (inactive) in experiment [2]; 19.3 µM (inactive) in experiment [3]; 38.2 µM (inactive) in [17]; 46.7 µM (inactive) in [4]; 16.3 µM (inactive) in experiment [5]. Moreover, the GI50 is 33.2 µM (inactive) in experiment [18]; 34.8 µM (inactive) in [6]; 27.5 µM (inactive) in experiment [7]; 26.2 µM (inactive) in experiment [8]; 21.2 µM (inactive) in [10]; 42.9 µM (inactive) in experiment [11]. Further, the GI50 in [12] is 20 µM (inactive); in [20], 15.7 µM (inactive); in experiment [13], 32.3 µM (inactive); in experiment [14], 14.1 µM; in experiment [15], 12.4 µM (inactive); in experiment [16], 15.1 µM (inactive).

For `Clc1sc(Cl)c2c1[C@H](Br)C[C@@H]2Cl`, the GI50 in experiment [2] is 18.2 µM (inactive); in [3] it was 18.4 µM (inactive); in [17], > 100 µM (inactive); in [4] it was 15.7 µM (inactive); in [5] it was 15.8 µM (inactive); in experiment [18] it was 26.2 µM (inactive). The GI50 in experiment [6] is 27.7 µM (inactive); in experiment [7], 32.9 µM (inactive); in experiment [8] it was 29.4 µM (inactive); in experiment [9], 17.7 µM (inactive); in experiment [10], 27.6 µM (inactive); in [11], 36.4 µM (inactive). The GI50 in experiment [12] was 20.9 µM (inactive); in [20], 20.3 µM (inactive); in [13], 19.1 µM (inactive); in experiment [14], 17.1 µM; in experiment [15], 22.8 µM (inactive); in experiment [16], 57.7 µM (inactive).

Turning to `CC1N=C(c2ccccc2)OC1=O` (stereo not drawn), the GI50 in experiment [2], in [3], in experiment [17], in experiment [5], in experiment [18] and in experiment [19] was > 100 µM (inactive) each time. The GI50 in experiment [6], in experiment [7], in experiment [8], in experiment [9], in experiment [10] and in experiment [11] was > 100 µM (inactive) throughout. In addition, the GI50 was > 100 µM (inactive) in [12]; > 100 µM (inactive) in experiment [20]; > 100 µM (inactive) in experiment [13]; above 100 µM in [14]; > 100 µM (inactive) in experiment [15]; > 100 µM (inactive) in experiment [16].

With `CN(C)CCNc1ncnc2[nH]c(-c3ccc4ccccc4c3)nc12`, the GI50 in experiment [1], in experiment [2], in experiment [3], in experiment [4], in experiment [18] and in experiment [6] was > 100 µM (inactive) in each case. For the same compound, the GI50 in experiment [7], in [8], in [9], in [10], in [11] and in [12] was > 100 µM (inactive) each time. Further, the GI50 is > 100 µM (inactive) in [20]; > 100 µM (inactive) in experiment [13]; above 100 µM in [14]; > 100 µM (inactive) in experiment [15]; > 100 µM (inactive) in [16].
